Experimental data from ChEMBL document CHEMBL1806455, “Synthesis, activity and pharmacokinetics of novel antibacterial 15-membered ring macrolones” (Eur J Med Chem, 2011).
Converted amounts (≈) assume the structure as drawn.

Key:
Staphylococcus aureus [1] = assay: Antibacterial activity against erythromycin-sensitive Staphylococcus aureus ATCC 13709 by broth microdilution method; type: functional
Streptococcus pneumoniae [2] = assay: Antibacterial activity against erythromycin-sensitive Streptococcus pneumoniae SP030 by broth microdilution method; type: functional
Streptococcus pyogenes [3] = assay: Antibacterial activity against erythromycin-sensitive Streptococcus pyogenes 3565 by broth microdilution method; type: functional
Staphylococcus aureus [4] = assay: Antibacterial activity against efflux-mediated macrolide-resistant Staphylococcus aureus PK1 by broth microdilution method; type: functional
Streptococcus pneumoniae [5] = assay: Antibacterial activity against efflux-mediated macrolide-resistant Streptococcus pneumoniae Ci137 by broth microdilution method; type: functional
Streptococcus pyogenes [6] = assay: Antibacterial activity against efflux-mediated macrolide-resistance Streptococcus pyogenes 2 Finland by broth microdilution method; type: functional
Staphylococcus aureus [7] = assay: Antibacterial activity against inducible macrolide-lincosamide-streptogramin B resistant Staphylococcus aureus 90256 by broth microdilution method; type: functional
Streptococcus pneumoniae [8] = assay: Antibacterial activity against inducible macrolide-resistant, constitutive lincosamide, streptogramin-resistant Streptococcus pneumoniae 134 GR M by broth microdilution method; type: functional
Streptococcus pyogenes [9] = assay: Antibacterial activity against inducible macrolide-lincosamide-streptogramin B resistant Streptococcus pyogenes Finland 11 by broth microdilution method; type: functional
Staphylococcus aureus [10] = assay: Antibacterial activity against constitutive macrolide, lincosamide, streptogramin-resistant Staphylococcus aureus PK2 by broth microdilution method; type: functional
Streptococcus pneumoniae [11] = assay: Antibacterial activity against constitutive macrolide, lincosamide, streptogramin-resistant Streptococcus pneumoniae 58 spain by broth microdilution method; type: functional
Streptococcus pyogenes [12] = assay: Antibacterial activity against macrolide, lincosamide, streptogramin-resistant Streptococcus pyogenes 166 GR-Micro by broth microdilution method; type: functional
Haemophilus influenzae = assay: Antibacterial activity against Haemophilus influenzae ATCC 49247 by broth microdilution method; type: functional
Moraxella catarrhalis = assay: Antibacterial activity against Moraxella catarrhalis ATCC 23246 by broth microdilution method; type: functional
Rattus norvegicus = assay: Liver blood flow in Han Wistar rat at 10 mg/kg, iv and 50 mg/kg, po; type: ADME, organism-based; conditions: in vivo

CC[C@H]1OC(=O)[C@H](C)[C@@H](O[C@H]2C[C@@](C)(OC)[C@@H](OC(=O)CCOCCOCCNc3cc4c(=O)c(C(=O)O)cn(CC)c4cc3Cl)[C@H](C)O2)[C@H](C)[C@@H](O[C@@H]2O[C@H](C)C[C@H](N(C)C)[C@H]2O)[C@](C)(O)C[C@@H](C)CN(C)[C@H](C)[C@@H](O)[C@]1(C)O
MIC (Staphylococcus aureus [1]): ≤ 0.125 µg/mL | MIC (Streptococcus pneumoniae [2]): ≤ 0.125 µg/mL | MIC (Streptococcus pyogenes [3]): ≤ 0.125 µg/mL | MIC (Staphylococcus aureus [4]): ≤ 0.125 µg/mL | MIC (Streptococcus pneumoniae [5]): ≤ 0.125 µg/mL | MIC (Streptococcus pyogenes [6]): ≤ 0.125 µg/mL | MIC (Staphylococcus aureus [7]): ≤ 0.125 µg/mL | MIC (Streptococcus pneumoniae [8]): ≤ 0.125 µg/mL | MIC (Streptococcus pyogenes [9]): ≤ 0.125 µg/mL | MIC (Staphylococcus aureus [10]): 16 µg/mL (≈ 13.8 µM) | MIC (Streptococcus pneumoniae [11]): ≤ 0.125 µg/mL | MIC (Streptococcus pyogenes [12]): 0.25 µg/mL (≈ 0.216 µM) | MIC (Haemophilus influenzae): 1 µg/mL (≈ 0.864 µM) | MIC (Moraxella catarrhalis): 0.5 µg/mL (≈ 0.432 µM)

CC[C@H]1OC(=O)[C@H](C)[C@@H](O[C@H]2C[C@@](C)(OC)[C@@H](OC(=O)CCOCCNc3ccc4c(c3)c(=O)c(C(=O)OC(C)C)cn4C3CC3)[C@H](C)O2)[C@H](C)[C@@H](O[C@@H]2O[C@H](C)C[C@H](N(C)C)[C@H]2O)[C@](C)(O)C[C@@H](C)CN(C)[C@H](C)[C@@H](O)[C@]1(C)O
MIC (Staphylococcus aureus [1]): 0.5 µg/mL (≈ 0.441 µM) | MIC (Streptococcus pneumoniae [2]): ≤ 0.125 µg/mL | MIC (Streptococcus pyogenes [3]): ≤ 0.125 µg/mL | MIC (Staphylococcus aureus [4]): 8 µg/mL (≈ 7.06 µM) | MIC (Streptococcus pneumoniae [5]): ≤ 0.125 µg/mL | MIC (Streptococcus pyogenes [6]): ≤ 0.125 µg/mL | MIC (Staphylococcus aureus [7]): 16 µg/mL (≈ 14.1 µM) | MIC (Streptococcus pneumoniae [8]): ≤ 0.125 µg/mL | MIC (Streptococcus pyogenes [9]): ≤ 0.125 µg/mL | MIC (Staphylococcus aureus [10]): > 64 µg/mL | MIC (Streptococcus pneumoniae [11]): ≤ 0.125 µg/mL | MIC (Streptococcus pyogenes [12]): ≤ 0.125 µg/mL | MIC (Haemophilus influenzae): 4 µg/mL (≈ 3.53 µM) | MIC (Moraxella catarrhalis): 4 µg/mL (≈ 3.53 µM)

CC[C@H]1OC(=O)[C@H](C)[C@@H](O[C@H]2C[C@@](C)(OC)[C@@H](OC(=O)CCOCCNc3cc4c(=O)c(C(=O)O)cn(C5CC5)c4cc3Cl)[C@H](C)O2)[C@H](C)[C@@H](O[C@@H]2O[C@H](C)C[C@H](N(C)C)[C@H]2O)[C@](C)(O)C[C@@H](C)CN(C)[C@H](C)[C@@H](O)[C@]1(C)O
MIC (Staphylococcus aureus [1]): ≤ 0.125 µg/mL | MIC (Streptococcus pneumoniae [2]): ≤ 0.125 µg/mL | MIC (Streptococcus pyogenes [3]): ≤ 0.125 µg/mL | MIC (Staphylococcus aureus [4]): 0.25 µg/mL (≈ 0.222 µM) | MIC (Streptococcus pneumoniae [5]): ≤ 0.125 µg/mL | MIC (Streptococcus pyogenes [6]): ≤ 0.125 µg/mL | MIC (Staphylococcus aureus [7]): 0.25 µg/mL (≈ 0.222 µM) | MIC (Streptococcus pneumoniae [8]): ≤ 0.125 µg/mL | MIC (Streptococcus pyogenes [9]): ≤ 0.125 µg/mL | MIC (Staphylococcus aureus [10]): 32 µg/mL (≈ 28.4 µM) | MIC (Streptococcus pneumoniae [11]): ≤ 0.125 µg/mL | MIC (Streptococcus pyogenes [12]): ≤ 0.125 µg/mL | MIC (Haemophilus influenzae): 0.5 µg/mL (≈ 0.444 µM) | MIC (Moraxella catarrhalis): 0.5 µg/mL (≈ 0.444 µM) | LBF (Rattus norvegicus): 26%

CC[C@H]1OC(=O)[C@H](C)[C@@H](O[C@H]2C[C@@](C)(OC)[C@@H](OC(=O)CCOCCOCCNc3ccc4c(c3)c(=O)c(C(=O)O)cn4CC)[C@H](C)O2)[C@H](C)[C@@H](O[C@@H]2O[C@H](C)C[C@H](N(C)C)[C@H]2O)[C@](C)(O)C[C@@H](C)CN(C)[C@H](C)[C@@H](O)[C@]1(C)O
MIC (Staphylococcus aureus [1]): 0.25 µg/mL (≈ 0.223 µM) | MIC (Streptococcus pneumoniae [2]): ≤ 0.125 µg/mL | MIC (Streptococcus pyogenes [3]): ≤ 0.125 µg/mL | MIC (Staphylococcus aureus [4]): ≤ 0.125 µg/mL | MIC (Streptococcus pneumoniae [5]): ≤ 0.125 µg/mL | MIC (Streptococcus pyogenes [6]): ≤ 0.125 µg/mL | MIC (Staphylococcus aureus [7]): 0.25 µg/mL (≈ 0.223 µM) | MIC (Streptococcus pneumoniae [8]): 1 µg/mL (≈ 0.89 µM) | MIC (Streptococcus pyogenes [9]): ≤ 0.125 µg/mL | MIC (Staphylococcus aureus [10]): 64 µg/mL (≈ 57 µM) | MIC (Streptococcus pneumoniae [11]): ≤ 0.125 µg/mL | MIC (Streptococcus pyogenes [12]): ≤ 0.125 µg/mL | MIC (Haemophilus influenzae): 2 µg/mL (≈ 1.78 µM) | MIC (Moraxella catarrhalis): 2 µg/mL (≈ 1.78 µM)

CC[C@H]1OC(=O)[C@H](C)[C@@H](O[C@H]2C[C@@](C)(OC)[C@@H](OC(=O)CCOCCOc3ccc4c(c3)c(=O)c(C(=O)OCC(C)=O)cn4C3CC3)[C@H](C)O2)[C@H](C)[C@@H](O[C@@H]2O[C@H](C)C[C@H](N(C)C)[C@H]2O)[C@](C)(O)C[C@@H](C)CN(C)[C@H](C)[C@@H](O)[C@]1(C)O
MIC (Staphylococcus aureus [1]): 0.5 µg/mL (≈ 0.435 µM) | MIC (Streptococcus pneumoniae [2]): ≤ 0.125 µg/mL | MIC (Streptococcus pyogenes [3]): ≤ 0.125 µg/mL | MIC (Staphylococcus aureus [4]): 1 µg/mL (≈ 0.871 µM) | MIC (Streptococcus pneumoniae [5]): 0.25 µg/mL (≈ 0.218 µM) | MIC (Streptococcus pyogenes [6]): ≤ 0.125 µg/mL | MIC (Staphylococcus aureus [7]): 2 µg/mL (≈ 1.74 µM) | MIC (Streptococcus pneumoniae [8]): 0.25 µg/mL (≈ 0.218 µM) | MIC (Streptococcus pyogenes [9]): ≤ 0.125 µg/mL | MIC (Staphylococcus aureus [10]): 64 µg/mL (≈ 55.7 µM) | MIC (Streptococcus pneumoniae [11]): 0.5 µg/mL (≈ 0.435 µM) | MIC (Streptococcus pyogenes [12]): ≤ 0.125 µg/mL | MIC (Haemophilus influenzae): 2 µg/mL (≈ 1.74 µM) | MIC (Moraxella catarrhalis): 1 µg/mL (≈ 0.871 µM)

CC[C@H]1OC(=O)[C@H](C)[C@@H](O[C@H]2C[C@@](C)(OC)[C@@H](OC(=O)CCOCCOc3cc4c(=O)c(C(=O)O)cn(C5CC5)c4cc3Cl)[C@H](C)O2)[C@H](C)[C@@H](O[C@@H]2O[C@H](C)C[C@H](N(C)C)[C@H]2O)[C@](C)(O)C[C@@H](C)CN(C)[C@H](C)[C@@H](O)[C@]1(C)O
MIC (Staphylococcus aureus [1]): 0.25 µg/mL (≈ 0.222 µM) | MIC (Streptococcus pneumoniae [2]): ≤ 0.125 µg/mL | MIC (Streptococcus pyogenes [3]): ≤ 0.125 µg/mL | MIC (Staphylococcus aureus [4]): 0.5 µg/mL (≈ 0.444 µM) | MIC (Streptococcus pneumoniae [5]): ≤ 0.125 µg/mL | MIC (Streptococcus pyogenes [6]): ≤ 0.125 µg/mL | MIC (Staphylococcus aureus [7]): 0.5 µg/mL (≈ 0.444 µM) | MIC (Streptococcus pneumoniae [8]): 0.25 µg/mL (≈ 0.222 µM) | MIC (Streptococcus pyogenes [9]): ≤ 0.125 µg/mL | MIC (Staphylococcus aureus [10]): > 64 µg/mL | MIC (Streptococcus pneumoniae [11]): 0.5 µg/mL (≈ 0.444 µM) | MIC (Streptococcus pyogenes [12]): 0.25 µg/mL (≈ 0.222 µM) | MIC (Haemophilus influenzae): 1 µg/mL (≈ 0.887 µM) | MIC (Moraxella catarrhalis): 1 µg/mL (≈ 0.887 µM)
